Data: ChEMBL document CHEMBL6083271 (J Med Chem, 2024)
Each block holds one molecule with its values, some of them ahead of it. Active and inactive are the calls of the source. The rule behind the calls is not given here.

Tests used:
RS4-11 [1] = test: Upregulation of p53 level in human RS4;11 cells harbouring wild type p53 at 10 to 300 nM measured after 2 hrs by Western blot analysis; format: functional, cell-based; conditions: dose 10-300 nM
RS4-11 [2] = test: Downregulation of MDM2 level in human RS4;11 cells harbouring wild type p53 at 10 to 300 nM measured after 2 hrs by Western blot analysis; format: functional, cell-based; conditions: dose 10-300 nM
RS4-11 [3] = test: Antiproliferative activity against human RS4;11 cells harbouring p53 mutant assessed as inhibition of cell growth measured after 4 days by WST-8 assay; format: functional, cell-based; conditions: RS4-11, 96 h
MV4-11 [4] = test: Antiproliferative activity against human MV4-11 cells assessed as inhibition of cell growth measured after 4 days by WST-8 assay; format: functional, cell-based; conditions: MV4-11, 96 h
[5] = Toxicity in female NOD-SCID mouse assessed as effect on body weight at 50 mg/kg, iv qd; format: organism-based; conditions: in vivo
RS4-11 [6] = test: Antitumor activity against human RS4;11 cells xenografted in female NOD-SCID mouse model assessed as tumor regression at 50 mg/kg, iv administered every other day for 2 weeks by vernier method relative to control; format: functional
RS4-11 [7] = test: Antiproliferative activity against human RS4;11 cells assessed as inhibition of cell growth measured after 4 days by WST-8 assay; format: functional, cell-based; conditions: for IC50: RS4-11, 96 h
RS4-11 [8] = test: Antiproliferative activity against human RS4;11 cells harbouring p53 wild type assessed as inhibition of cell growth measured after 4 days by WST-8 assay; format: functional, cell-based; conditions: RS4-11, 96 h
RS4-11 [9] = test: Antitumor activity against human RS4;11 cells xenografted in SCID mouse model assessed as tumor regression at 50 mg/kg, iv qd administered every other for 2 weeks by caliper method relative to control; format: functional
RS4-11 [10] = test: Antitumor activity against human RS4;11 cells xenografted in SCID mouse model assessed as tumor regression at 50 mg/kg, iv qd administered every other for 2 weeks by caliper method; format: functional, organism-based
[11] = Toxicity in SCID mouse at 50 mg/kg, iv; format: organism-based; conditions: in vivo
OCI-AML-5 = test: Antiproliferative activity against human OCI-AML5 cells assessed as inhibition of cell growth measured after 4 days by WST-8 assay; format: functional, cell-based; conditions: OCI-AML-5, 96 h
OCI-AML2 = test: Antiproliferative activity against human OCI-AML2 cells assessed as inhibition of cell growth measured after 4 days by WST-8 assay; format: functional, cell-based; conditions: OCI-AML2, 96 h
MOLM-14 = test: Antiproliferative activity against human MOLM-14 cells assessed as inhibition of cell growth measured after 4 days by WST-8 assay; format: functional, cell-based; conditions: MOLM-14, 96 h
RS4-11 [12] = test: Antitumor activity against human RS4;11 cells xenografted in SCID mouse model assessed as tumor regression at 50 mg/kg, iv qd administered every other for 2 weeks and measured upto 30 days by caliper method relative to control; format: functional; conditions: time <= 30 day
MOLM-13 = test: Antiproliferative activity against human MOLM-13 cells assessed as inhibition of cell growth measured after 4 days by WST-8 assay; format: functional, cell-based; conditions: MOLM-13, 96 h
SIG-M5 = test: Antiproliferative activity against human SIG-M5 cells assessed as inhibition of cell growth measured after 4 days by WST-8 assay; format: functional, cell-based; conditions: SIG-M5, 96 h
OCI-AML-3 = test: Antiproliferative activity against human OCI-AML-3 cells assessed as inhibition of cell growth measured after 4 days by WST-8 assay; format: functional, cell-based; conditions: OCI-AML-3, 96 h
ML-2 = test: Antiproliferative activity against human ML-2 cells assessed as inhibition of cell growth measured after 4 days by WST-8 assay; format: functional, cell-based; conditions: ML-2, 96 h
[13] = biological target: Protein cereblon/Eukaryotic peptide chain release factor GTP-binding subunit ERF3A (Homo sapiens) (UniProt Q96SW2+P15170); test: PROTAC activity at CRBN/GSPT1 in human RS4;11 cells assessed as induction of GSPT1 degradation at 10 to 1000 nM measured after 4 hrs by Western blot analysis; format: cell-based; conditions: dose 10-1000 nM
MV4-11 [14] = test: Upregulation of PUMA mRNA level in human MV4-11 cells at 300 nM by qRT-PCR analysis; format: functional, cell-based
RS4-11 [15] = test: Effect of p53 mRNA level in human RS4;11 cells at 300 nM by qRT-PCR analysis; format: functional, cell-based
RS4-11 [16] = test: Upregulation of p21 mRNA level in human RS4;11 cells at 300 nM measured after 3 hrs by qRT-PCR analysis; format: functional, cell-based
RS4-11 [17] = test: Antiproliferative activity against human RS4;11 cells assessed as inhibition of cell growth measured after 4 days in presence of lenalidomide by WST-8 assay; format: functional, cell-based; conditions: time 4.0 day
MV4-11 [18] = test: Upregulation of p21 mRNA level in human MV4-11 cells at 300 nM by qRT-PCR analysis; format: functional, cell-based
MV4-11 [19] = test: Upregulation of MDM2 mRNA level in human MV4-11 cells at 300 nM by qRT-PCR analysis; format: functional, cell-based
RS4-11 [20] = test: Upregulation of MDM2 mRNA level in human RS4;11 cells at 300 nM measured after 3 hrs by qRT-PCR analysis; format: functional, cell-based
RS4-11 [21] = test: Upregulation of PUMA mRNA level in human RS4;11 cells at 300 nM measured after 3 hrs by qRT-PCR analysis; format: functional, cell-based
MV4-11 [22] = test: Antiproliferative activity against human MV4-11 cells assessed as inhibition of cell growth measured after 4 days in presence of lenalidomide by WST-8 assay; format: functional, cell-based; conditions: time 4.0 day

Sequence of Protein cereblon/Eukaryotic peptide chain release factor GTP-binding subunit ERF3A (Homo sapiens) (P15170 whole entry, looked up): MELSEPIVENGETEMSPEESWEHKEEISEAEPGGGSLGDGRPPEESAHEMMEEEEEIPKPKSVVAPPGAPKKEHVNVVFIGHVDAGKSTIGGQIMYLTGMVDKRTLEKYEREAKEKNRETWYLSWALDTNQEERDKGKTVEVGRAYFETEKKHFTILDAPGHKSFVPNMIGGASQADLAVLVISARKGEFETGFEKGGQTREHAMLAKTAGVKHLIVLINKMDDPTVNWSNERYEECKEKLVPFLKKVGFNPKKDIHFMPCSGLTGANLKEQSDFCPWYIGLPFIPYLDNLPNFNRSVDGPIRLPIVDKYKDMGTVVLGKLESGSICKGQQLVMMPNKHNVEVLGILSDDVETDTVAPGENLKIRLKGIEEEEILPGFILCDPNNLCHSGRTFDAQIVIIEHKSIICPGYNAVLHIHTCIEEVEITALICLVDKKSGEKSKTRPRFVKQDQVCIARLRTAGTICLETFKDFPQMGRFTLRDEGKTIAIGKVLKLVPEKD
Sequence of Protein cereblon/Eukaryotic peptide chain release factor GTP-binding subunit ERF3A (Homo sapiens) (Q96SW2 whole entry, looked up): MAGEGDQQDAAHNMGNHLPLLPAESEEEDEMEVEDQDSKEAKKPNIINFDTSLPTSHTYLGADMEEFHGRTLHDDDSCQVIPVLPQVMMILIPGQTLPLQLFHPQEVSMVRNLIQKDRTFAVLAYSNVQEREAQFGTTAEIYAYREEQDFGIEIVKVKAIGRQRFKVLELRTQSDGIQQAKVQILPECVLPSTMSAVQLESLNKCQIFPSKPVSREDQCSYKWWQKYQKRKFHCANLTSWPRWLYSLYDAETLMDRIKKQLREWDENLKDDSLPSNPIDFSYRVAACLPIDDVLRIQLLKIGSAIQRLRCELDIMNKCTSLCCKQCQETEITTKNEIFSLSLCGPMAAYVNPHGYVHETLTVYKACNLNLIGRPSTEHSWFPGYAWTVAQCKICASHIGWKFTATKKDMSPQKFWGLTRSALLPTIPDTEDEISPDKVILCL

Structure (SMILES): O=C(O)c1ccc(NC(=O)[C@@H]2NC3(CCCCC3)[C@@]3(C(=O)Nc4cc(Cl)ccc43)[C@H]2c2cccc(Cl)c2F)cc1
Activity (RS4-11 [1]): Active | Activity (RS4-11 [2]): inactive

Structure (SMILES): CN1C(=O)CCC(N2Cc3c(C#CC4CCN(C(=O)[C@H]5CC[C@H](NC(=O)[C@@H]6NC7(CCCCC7)[C@@]7(C(=O)Nc8cc(Cl)ccc87)[C@H]6c6cccc(Cl)c6F)CC5)CC4)cccc3C2=O)C1=O (stereo partly drawn)
Activity (RS4-11 [7]; time 4.0 day): Active; Compound Showed Weaker Cell Growth Inhibition

Structure (SMILES): O=C1CCC(N2Cc3c(CC[C@H]4CC[C@H](NC(=O)c5ccc(NC(=O)[C@@H]6NC7(CCCCC7)[C@@]7(C(=O)Nc8cc(Cl)ccc87)[C@H]6c6cccc(Cl)c6F)cc5)CC4)cccc3C2=O)C(=O)N1 (stereo partly drawn)
IC50 (RS4-11 [3]): > 1 µM | IC50 (RS4-11 [8]): 0.034 µM

Structure (SMILES): O=C1CCC(N2Cc3c(C#CCCCNC(=O)c4ccc(NC(=O)[C@@H]5NC6(CCCCC6)[C@@]6(C(=O)Nc7cc(Cl)ccc76)[C@H]5c5cccc(Cl)c5F)cc4F)cccc3C2=O)C(=O)N1 (stereo partly drawn)
IC50 (RS4-11 [3]): > 1 µM | IC50 (RS4-11 [8]): 0.003 µM

Structure (SMILES): COc1cc(NC(=O)[C@@H]2NC3(CCCCC3)[C@@]3(C(=O)Nc4cc(Cl)ccc43)[C@H]2c2cccc(Cl)c2F)ccc1C(=O)NCCCC#Cc1cccc2c1CN(C1CCC(=O)NC1=O)C2=O (stereo partly drawn)
IC50 (RS4-11 [3]): > 1 µM | IC50 (RS4-11 [8]): 0.004 µM

Structure (SMILES): O=C1CCC(N2Cc3c(C#CCCCNC(=O)C45CCC(NC(=O)[C@@H]6NC7(CCCCC7)[C@@]7(C(=O)Nc8cc(Cl)ccc87)[C@H]6c6cccc(Cl)c6F)(CC4)CC5)cccc3C2=O)C(=O)N1 (stereo partly drawn)
IC50 (RS4-11 [3]): > 1 µM | IC50 (RS4-11 [8]): 0.003 µM

Structure (SMILES): O=C(N[C@H]1CC[C@H](C(=O)O)CC1)[C@@H]1NC2(CCCCC2)[C@@]2(C(=O)Nc3cc(Cl)ccc32)[C@H]1c1cccc(Cl)c1F
Activity (MV4-11 [14]): Active; Less Effective Than Md-265 | IC50 (MV4-11 [4]): 0.093 µM | Activity (RS4-11 [15]): inactive | Activity (RS4-11 [16]): Active; Least Effect | Activity (RS4-11 [17]): Active; Compound Showed Modest Inhibition Of Cell Growth | Activity (MV4-11 [18]): Active; Less Effective Than Md-265 | Activity (MV4-11 [19]): Active; Less Effective Than Md-265 | Activity (RS4-11 [20]): Active; Least Effect | IC50 (RS4-11 [7]): 0.179 µM | Activity (RS4-11 [21]): Active; Least Effect | Activity (MV4-11 [22]): Active; Compound Showed Minimal Effect

Structure (SMILES): O=C1CCC(N2Cc3c(NCC4CN(CCNC(=O)c5ccc(NC(=O)[C@@H]6NC7(CCCCC7)[C@@]7(C(=O)Nc8cc(Cl)ccc87)[C@H]6c6cccc(Cl)c6F)cc5)C4)cccc3C2=O)C(=O)N1 (stereo partly drawn)
IC50 (RS4-11 [3]): > 1 µM | IC50 (RS4-11 [8]): 0.008 µM

Continued, in another order:

IC50 (RS4-11 [3]): > 1 µM | IC50 (MV4-11 [4]): 0.007 µM | IC50 (RS4-11 [7]): 0.002 µM | IC50 (RS4-11 [8]): 0.004 µM
Structure (SMILES): O=C1CCC(N2Cc3c(C#CCCCNC(=O)c4ccc(NC(=O)[C@@H]5NC6(CCCCC6)[C@@]6(C(=O)Nc7cc(Cl)ccc76)[C@H]5c5cccc(Cl)c5F)cc4)cccc3C2=O)C(=O)N1 (stereo partly drawn)
Activity [5]: Non-toxic | Activity (RS4-11 [6]): 100% | Activity (RS4-11 [9]): 100%

IC50 (RS4-11 [3]): > 1 µM | IC50 (RS4-11 [8]): 0.007 µM
Structure (SMILES): O=C1CCC(N2Cc3c(CCc4cn(CCCNC(=O)c5ccc(NC(=O)[C@@H]6NC7(CCCCC7)[C@@]7(C(=O)Nc8cc(Cl)ccc87)[C@H]6c6cccc(Cl)c6F)cc5)cn4)cccc3C2=O)C(=O)N1 (stereo partly drawn)
Activity (RS4-11 [10]): Active; Compound Showed Minimal Tumor Growth Inhibition

IC50 (RS4-11 [3]): 0.18 µM | IC50 (RS4-11 [8]): 0.006 µM
Structure (SMILES): O=C1CCC(N2Cc3c(NCc4cn(CCCNC(=O)c5ccc(NC(=O)[C@@H]6NC7(CCCCC7)[C@@]7(C(=O)Nc8cc(Cl)ccc87)[C@H]6c6cccc(Cl)c6F)cc5)cn4)cccc3C2=O)C(=O)N1 (stereo partly drawn)
Activity [11]: Toxic

IC50 (RS4-11 [3]): > 1 µM | IC50 (RS4-11 [7]): 0.001 µM | IC50 (RS4-11 [8]): 0.0009 µM
Structure (SMILES): O=C1CCC(N2Cc3c(C#CCCCNC(=O)[C@H]4CC[C@H](NC(=O)[C@@H]5NC6(CCCCC6)[C@@]6(C(=O)Nc7cc(Cl)ccc76)[C@H]5c5cccc(Cl)c5F)CC4)cccc3C2=O)C(=O)N1 (stereo partly drawn)
Activity (RS4-11 [10]): Active

IC50 (RS4-11 [3]): 0.05 µM | IC50 (OCI-AML-5): 0.148 µM | IC50 (OCI-AML2): 0.113 µM | IC50 (MV4-11 [4]): 0.014 µM | IC50 (MOLM-14): 0.076 µM | IC50 (MOLM-13): 0.037 µM | IC50 (RS4-11 [7]): 0.003 µM | IC50 (RS4-11 [8]): 0.004 µM | IC50 (OCI-AML-3): 7.75 µM
Structure (SMILES): O=C1CCC(N2Cc3c(C#CC4CCN(C(=O)c5ccc(NC(=O)[C@@H]6NC7(CCCCC7)[C@@]7(C(=O)Nc8cc(Cl)ccc87)[C@H]6c6cccc(Cl)c6F)cc5)CC4)cccc3C2=O)C(=O)N1 (stereo partly drawn)
Activity (RS4-11 [12]): 100% | IC50 (SIG-M5): 0.103 µM | IC50 (ML-2): 0.011 µM

IC50 (RS4-11 [3]): > 1 µM | IC50 (RS4-11 [8]): 0.005 µM
Structure (SMILES): O=C(CN1CCC(NC(=O)[C@@H]2NC3(CCCCC3)[C@@]3(C(=O)Nc4cc(Cl)ccc43)[C@H]2c2cccc(Cl)c2F)CC1)NCCCC#Cc1cccc2c1CN(C1CCC(=O)NC1=O)C2=O (stereo partly drawn)
Activity (RS4-11 [10]): inactive

IC50 (RS4-11 [3]): > 1 µM | IC50 (RS4-11 [8]): 0.037 µM
Structure (SMILES): O=C1CCC(N2Cc3c(NC4CN(C(=O)c5ccc(NC(=O)[C@@H]6NC7(CCCCC7)[C@@]7(C(=O)Nc8cc(Cl)ccc87)[C@H]6c6cccc(Cl)c6F)cc5)C4)cccc3C2=O)C(=O)N1 (stereo partly drawn)

IC50 (RS4-11 [3]): > 1 µM | IC50 (RS4-11 [8]): 0.019 µM
Structure (SMILES): O=C1CCC(N2Cc3c(NCC4CN(C(=O)c5ccc(NC(=O)[C@@H]6NC7(CCCCC7)[C@@]7(C(=O)Nc8cc(Cl)ccc87)[C@H]6c6cccc(Cl)c6F)cc5)C4)cccc3C2=O)C(=O)N1 (stereo partly drawn)

IC50 (RS4-11 [3]): 0.003 µM | Activity [13]: Active | IC50 (RS4-11 [8]): 0.003 µM
Structure (SMILES): O=C1CCC(N2Cc3c(C#CCCCNC(=O)c4cccc(NC(=O)[C@@H]5NC6(CCCCC6)[C@@]6(C(=O)Nc7cc(Cl)ccc76)[C@H]5c5cccc(Cl)c5F)c4)cccc3C2=O)C(=O)N1 (stereo partly drawn)
